IC50 data for 31 compounds are collected here from US10858335B2 (Rigel Pharmaceuticals, Inc., priority 2014, dated 2020).

The first assay concerns GDF8 signaling (p-SMAD-3 (Ser423/425)). In words: AlphaScreen SureFire SMAD3 (p-Ser423/425) assay, GDF8-stimulated cells (GDF pSMAD). The class given is cell-based. The note with it: MPC11; GDF8-stimulated; p-SMAD3 AlphaScreen; read-out: GDF pSMAD (MPC11) (inhibition of GDF8 signaling).
Regarding `Nc1ncnc2ccc(-c3cccnc3-c3cc(Cl)ccc3F)cc12` [compound 818, 6-(2-(5-Chloro-2-fluorophenyl)pyridin-3-yl)quinazolin-4-amine], the IC50 was determined as 0.0774 µM.

Staying with this assay, now noted: Mus musculus, MPC-11, GDF8-stimulated pSMAD3, MPC11; tested as the salt form given; read-out: GDF pSMAD (MPC11) (μM), inhibition of GDF8 signaling.
Turning to `Cc1cc(F)c(Cl)cc1-c1ncccc1-c1ccc2ncnc(N)c2c1` [compound 989, 6-(2-(5-chloro-4-fluoro-2-methylphenyl)pyridin-3-yl)quinazolin-4-amine], the IC50 was found to be 0.692 µM.

The assay is the same for the next values; noted with them: Mus musculus, MPC-11, MPC11; GDF8-stimulated; p-SMAD3 AlphaScreen; read-out: GDF pSMAD (MPC11) (inhibition of GDF8 signaling).
For the compound `Fc1ccc(-c2ncccc2-c2ccc3[nH]ncc3c2)cc1F` [Compound 62, 5-(2-(3,4-Difluorophenyl)pyridin-3-yl)-1H-indazole], the IC50 came to 0.804 µM.
On the same count and under the same terms, the result for `Cc1cc(-c2ncc(NCc3nccs3)cc2-c2ccc3ncsc3c2)ccc1F` [compound 326, 5-(Benzo[d]thiazol-6-yl)-6-(4-fluoro-3-methylphenyl)-N-(thiazol-2-ylmethyl)pyridin-3-amine] reads 0.198 µM.
On the same count and under the same terms, the value for `Fc1ccc(Cl)cc1-c1ncccc1-c1ccc2ncnn2c1` [compound 747, 6-(2-(5-Chloro-2-fluorophenyl)pyridin-3-yl)-[1,2,4]triazolo[1,5-a]pyridine] was 0.284 µM; that for `O=C(NCCCN1CCCC1=O)c1cnc2ccc(-c3cccnc3-c3ccc(F)c(Cl)c3)cn12` [compound 727, 6-(2-(3-Chloro-4-fluorophenyl)pyridin-3-yl)-N-(3-(2-oxopyrrolidin-1-yl)propyl)imidazo[1,2-a]pyridine-3-carboxamide] was 0.886 µM; that for `Cc1cc(-c2ncc(CN(C)C)cc2-c2ccc3nccnc3c2)ccc1F` [compound 226, 1-(6-(4-Fluoro-3-methylphenyl)-5-(quinoxalin-6-yl)pyridin-3-yl)-N,N-dimethylmethanamine] was 10 µM.
On to `Cc1cc(-c2ncccc2-c2ccn3c(C(=O)NCCCN4CCCC4)ncc3c2)ccc1F` [compound 278, 7-(2-(4-Fluoro-3-methylphenyl)pyridin-3-yl)-N-(3-(pyrrolidin-1-yl)propyl)imidazo[1,5-a]pyridine-3-carboxamide], for which the IC50 was found to be 2.23 µM.
Same read-out and setting: the value for `Cc1cc(-c2ncccc2-c2ccc3ncc(C)n3c2)ccc1F` [compound 527, 6-(2-(4-Fluoro-3-methylphenyl)pyridin-3-yl)-3-methylimidazo[1,2-a]pyridine] was 0.137 µM; that for `Cc1cccc(-c2ncccc2-c2ccc3[nH]ncc3c2)n1` [compound 116, 5-(2-(6-Methylpyridin-2-yl)pyridin-3-yl)-1H-indazole] was 0.0326 µM; that for `Cc1cc(-c2ncc(NCc3cccnc3C)cc2-c2ccc3ncsc3c2)ccc1F` [compound 331, 5-(Benzo[d]thiazol-6-yl)-6-(4-fluoro-3-methylphenyl)-N-((2-methylpyridin-3-yl)methyl)pyridin-3-amine] was 1.33 µM.
With `Cc1cnc2ccc(-c3cccnc3-c3cc(Cl)ccc3F)cn12` [compound 767, 6-(2-(5-Chloro-2-fluorophenyl)pyridin-3-yl)-3-methylimidazo[1,2-a]pyridine], the IC50 amounted to 0.227 µM.
On the same count and under the same terms, the result for `Cc1cc(-c2ncc(NC(C)C)cc2-c2ccc3nccnc3c2)ccc1F` [compound 241, 6-(4-Fluoro-3-methylphenyl)-N-isopropyl-5-(quinoxalin-6-yl)pyridin-3-amine] reads 4.06 µM; that for `Cc1cn2cc(-c3cccnc3-c3cccc(C(F)(F)F)c3)ccc2n1` [compound 534], 18 µM; that for `CCn1ncc2cc(-c3cccnc3-c3ccc(F)c(C)c3)ccc21` [Compound 184, 1-Ethyl-5-(2-(4-fluoro-3-methylphenyl)pyridin-3-yl)-1H-indazole], 12.9 µM.
For the compound `Nc1cnc(-c2cccc(C3CC3)c2)c(-c2ccc3[nH]ncc3c2)c1` [Compound 15, 6-(3-Cyclopropylphenyl)-5-(1H-indazol-5-yl)pyridin-3-amine], the IC50 came to 0.0649 µM.
On the same count and under the same terms, the result for `Cc1cc(-c2nc(N)ccc2-c2ccc3ncsc3c2)ccc1F` [Compound 27, 5-(Benzo[d]thiazol-6-yl)-6-(4-fluoro-3-methylphenyl)pyridin-2-amine] reads 0.453 µM; that for `Cc1ccc(F)c(-c2ncccc2-c2cnc3cn[nH]c3c2)c1` [Compound 140, 6-(2-(2-Fluoro-5-methylphenyl)pyridin-3-yl)-1H-pyrazolo[4,3-b]pyridine], 2.89 µM; that for `Fc1cc(-c2ncccc2-c2ccc3ncsc3c2)cc(F)c1F` [compound 666, 6-(2-(3,4,5-Trifluorophenyl)pyridin-3-yl)benzo[d]thiazole], 3.97 µM.
Same read-out and setting: the value for `Cc1cc(-c2ncccc2-c2ccn3ncc(C(=O)NCCCN)c3c2)ccc1F` [compound 684, N-(3-Aminopropyl)-5-(2-(4-fluoro-3-methylphenyl)pyridin-3-yl)pyrazolo[1,5-a]pyridine-3-carboxamide] was 0.593 µM; that for `c1cc(-c2ncccc2-c2ccc3nccc(N4CCOCC4)c3c2)cc(C2CC2)c1` [compound 549, 4-(6-(2-(3-Cyclopropylphenyl)pyridin-3-yl)quinolin-4-yl)morpholine] was 5.01 µM.
The same measure, in the same setting: the result for `Nc1ccc(-c2ccc3ncsc3c2)c(-c2cccc(C3CC3)c2)n1` [Compound 28, 5-(Benzo[d]thiazol-6-yl)-6-(3-cyclopropylphenyl)pyridin-2-amine] reads 1.75 µM; that for `Nc1ncnc2ccc(-c3cccnc3-c3cccc(F)c3Cl)cc12` [compound 503, 6-(2-(2-Chloro-3-fluorophenyl)pyridin-3-yl)quinazolin-4-amine], 4.82 µM; that for `Cc1cccc(-c2nc(N)ccc2-c2ccc3[nH]ncc3c2)c1` [Compound 23, 5-(1H-Indazol-5-yl)-6-m-tolylpyridin-2-amine], 2.25 µM.
On to `Cc1cccc(-c2cccnc2-c2ccc3nc[nH]c3c2)n1` [compound 521, 6-(6-Methyl-[2,3′-bipyridin]-2′-yl)-1H-benzo[d]imidazole], for which the IC50 worked out at 8.06 µM.
The same measure, in the same setting: the result for `FC(F)(F)c1cccc(-c2ncccc2-c2ccc3[nH]ncc3c2)c1` [Compound 197, 5-(2-(3-(Trifluoromethyl)phenyl)pyridin-3-yl)-1H-indazole] reads 0.359 µM; that for `Cc1cc(-c2ncccc2-c2ccc3ncc(C(=O)OC[C@H](Cc4c[nH]c5ccccc45)NC(=O)OC(C)(C)C)n3c2)ccc1F` [compound 614, (S)-2-((tert-Butoxycarbonyl)amino)-3-(1H-indol-3-yl)propyl 6-(2-(4-fluoro-3-methylphenyl)pyridin-3-yl)imidazo[1,2-a]pyridine-3-carboxylate], 5.56 µM.
Still for that read-out and setting: the result for `Fc1ccc(-c2ncccc2-c2ccc3[nH]ncc3c2)cc1C1CC1` [compound 211, 5-(2-(3-Cyclopropyl-4-fluorophenyl)pyridin-3-yl)-1H-indazole] reads 0.198 µM; that for `Cc1ccc(F)c(-c2ncccc2-c2ccc3[nH]ncc3c2)c1` [Compound 73, 5-(2-(2-Fluoro-5-methylphenyl)pyridin-3-yl)-1H-indazole], 0.497 µM; that for `N#Cc1cnc2ccc(-c3cccnc3-c3cc(Cl)ccc3F)nn12` [compound 950, 6-(2-(5-Chloro-2-fluorophenyl)pyridin-3-yl)imidazo[1,2-b]pyridazine-3-carbonitrile], 0.129 µM.
`COc1cnc(-c2ccc(F)c(C)c2)c(-c2ccn3ncnc3c2)c1` [compound 854, 7-(2-(4-Fluoro-3-methylphenyl)-5-methoxypyridin-3-yl)-[1,2,4]triazolo[1,5-a]pyridine]: the IC50 came to 4.67 µM.
